PubChem BioAssay (NCI)
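Where inhibition never reached the appropriate level, the endpoint shown equals the highest concentration tested. Otherwise, values were interpolated linearly from a five-concentration, 48-hour dose response in 96-well plates. At the TGI there is no net growth.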

Key:
Test in all cases: NCI-60 cell line screen, 48 h
786-0 renal = system: 786-0 renal
A498 renal = system: A498 renal
A549 NSCLC = system: A549 NSCLC
ACHN renal = system: ACHN renal
BT-549 breast = system: BT-549 breast
CAKI-1 renal = system: CAKI-1 renal
CCRF-CEM leukemia = system: CCRF-CEM leukemia
COLO 205 colon = system: COLO 205 colon
DU-145 prostate = system: DU-145 prostate
EKVX NSCLC = system: EKVX NSCLC
HCT-116 colon = system: HCT-116 colon
HCT-15 colon = system: HCT-15 colon
HL-60(TB) leukemia = system: HL-60(TB) leukemia
HOP-62 NSCLC = system: HOP-62 NSCLC
HOP-92 NSCLC = system: HOP-92 NSCLC
HS 578T breast = system: HS 578T breast
HT29 colon = system: HT29 colon
IGROV1 ovarian = system: IGROV1 ovarian
K-562 leukemia = system: K-562 leukemia
KM12 colon = system: KM12 colon
LOX IMVI melanoma = system: LOX IMVI melanoma
MDA-MB-231 breast = system: MDA-MB-231 breast
MDA-MB-435 = system: MDA-MB-435
MDA-N = system: MDA-N
MOLT-4 leukemia = system: MOLT-4 leukemia
NCI-H226 lung = system: NCI-H226 lung
NCI-H23 lung = system: NCI-H23 lung
NCI/ADR-RES ovarian = system: NCI/ADR-RES ovarian
OVCAR-3 ovarian = system: OVCAR-3 ovarian
OVCAR-4 ovarian = system: OVCAR-4 ovarian
OVCAR-8 ovarian = system: OVCAR-8 ovarian
PC-3 prostate = system: PC-3 prostate
RPMI-8226 leukemia = system: RPMI-8226 leukemia
RXF 393 renal = system: RXF 393 renal
SF-268 CNS = system: SF-268 CNS
SF-295 CNS = system: SF-295 CNS
SK-MEL-2 melanoma = system: SK-MEL-2 melanoma
SK-MEL-28 melanoma = system: SK-MEL-28 melanoma
SK-MEL-5 melanoma = system: SK-MEL-5 melanoma
SK-OV-3 ovarian = system: SK-OV-3 ovarian
SN12C renal = system: SN12C renal
SNB-19 CNS = system: SNB-19 CNS
SNB-75 CNS = system: SNB-75 CNS
SR leukemia = system: SR leukemia
SW-620 colon = system: SW-620 colon
T-47D breast = system: T-47D breast
TK-10 renal = system: TK-10 renal
U251 CNS = system: U251 CNS
UACC-257 melanoma = system: UACC-257 melanoma
UACC-62 melanoma = system: UACC-62 melanoma
UO-31 renal = system: UO-31 renal
HCC-2998 colon = system: HCC-2998 colon
M14 melanoma = system: M14 melanoma
MALME-3M melanoma = system: MALME-3M melanoma
NCI-H460 lung = system: NCI-H460 lung
NCI-H522 lung = system: NCI-H522 lung
OVCAR-5 ovarian = system: OVCAR-5 ovarian

`CC1(c2ccc(Cl)cc2)c2ccccc2C(=O)N1CCCN1C(=O)c2ccccc2C1=O` (stereo not given) was tested, and the TGI (786-0 renal) was > 100 µM, the TGI (A498 renal) was > 100 µM and the TGI (A549 NSCLC) was > 100 µM. The TGI (ACHN renal) was > 100 µM, the TGI (BT-549 breast) was > 100 µM and the TGI (CAKI-1 renal) was > 100 µM. For the same compound, the TGI (CCRF-CEM leukemia) was > 100 µM, the TGI (COLO 205 colon) was 36.2 µM and the TGI (DU-145 prostate) was > 100 µM. The TGI (EKVX NSCLC) was 7.25 µM, the TGI (HCT-116 colon) was 37.6 µM and the TGI (HCT-15 colon) was > 100 µM. For the same compound, the TGI (HL-60(TB) leukemia) was > 100 µM, the TGI (HOP-62 NSCLC) was > 100 µM and the TGI (HOP-92 NSCLC) was > 100 µM. For the same compound, the TGI (HS 578T breast) was > 100 µM, the TGI (HT29 colon) was > 100 µM and the TGI (IGROV1 ovarian) was 70.4 µM. For the same compound, the TGI (K-562 leukemia) was > 100 µM, the TGI (KM12 colon) was 50.8 µM and the TGI (LOX IMVI melanoma) was 47.5 µM. For the same compound, the TGI (MDA-MB-231 breast) was > 100 µM, the TGI (MDA-MB-435) was > 100 µM and the TGI (MDA-N) was > 100 µM. The TGI (MOLT-4 leukemia) was > 100 µM, the TGI (NCI-H226 lung) was 63.4 µM and the TGI (NCI-H23 lung) was 97.9 µM. For the same compound, the TGI (NCI/ADR-RES ovarian) was 76.1 µM, the TGI (OVCAR-3 ovarian) was 99.7 µM and the TGI (OVCAR-4 ovarian) was > 100 µM. The TGI (OVCAR-8 ovarian) was > 100 µM, the TGI (PC-3 prostate) was > 100 µM and the TGI (RPMI-8226 leukemia) was > 100 µM. For the same compound, the TGI (RXF 393 renal) was 94.5 µM, the TGI (SF-268 CNS) was > 100 µM and the TGI (SF-295 CNS) was 67 µM. For the same compound, the TGI (SK-MEL-2 melanoma) was 46.3 µM, the TGI (SK-MEL-28 melanoma) was > 100 µM and the TGI (SK-MEL-5 melanoma) was 31 µM. For the same compound, the TGI (SK-OV-3 ovarian) was > 100 µM, the TGI (SN12C renal) was > 100 µM and the TGI (SNB-19 CNS) was 78.5 µM. For the same compound, the TGI (SNB-75 CNS) was > 100 µM, the TGI (SR leukemia) was > 100 µM and the TGI (SW-620 colon) was > 100 µM. For the same compound, the TGI (T-47D breast) was > 100 µM, the TGI (TK-10 renal) was > 100 µM and the TGI (U251 CNS) was > 100 µM. The TGI (UACC-257 melanoma) was > 100 µM, the TGI (UACC-62 melanoma) was > 100 µM and the TGI (UO-31 renal) was > 100 µM.
For `CCOC(=O)CC1(N)CC2c3ccccc3OC(=O)C2C(=O)N1` (stereo not given), the TGI (786-0 renal) was > 100 µM, the TGI (A498 renal) was > 100 µM and the TGI (A549 NSCLC) was > 100 µM. For the same compound, the TGI (ACHN renal) was > 100 µM, the TGI (BT-549 breast) was > 100 µM and the TGI (CAKI-1 renal) was > 100 µM. For the same compound, the TGI (CCRF-CEM leukemia) was > 100 µM, the TGI (COLO 205 colon) was > 100 µM and the TGI (DU-145 prostate) was > 100 µM. For the same compound, the TGI (EKVX NSCLC) was > 100 µM, the TGI (HCC-2998 colon) was > 100 µM and the TGI (HCT-116 colon) was > 100 µM. The TGI (HCT-15 colon) was > 100 µM, the TGI (HL-60(TB) leukemia) was > 100 µM and the TGI (HOP-62 NSCLC) was > 100 µM. The TGI (HOP-92 NSCLC) was > 100 µM, the TGI (HS 578T breast) was > 100 µM and the TGI (HT29 colon) was > 100 µM. The TGI (IGROV1 ovarian) was > 100 µM, the TGI (K-562 leukemia) was > 100 µM and the TGI (KM12 colon) was > 100 µM. For the same compound, the TGI (LOX IMVI melanoma) was > 100 µM, the TGI (M14 melanoma) was > 100 µM and the TGI (MALME-3M melanoma) was > 100 µM. The TGI (MDA-MB-231 breast) was > 100 µM, the TGI (MDA-MB-435) was > 100 µM and the TGI (MDA-N) was > 100 µM. For the same compound, the TGI (MOLT-4 leukemia) was > 100 µM, the TGI (NCI-H226 lung) was > 100 µM and the TGI (NCI-H23 lung) was > 100 µM. For the same compound, the TGI (NCI-H460 lung) was > 100 µM, the TGI (NCI-H522 lung) was > 100 µM and the TGI (NCI/ADR-RES ovarian) was > 100 µM. For the same compound, the TGI (OVCAR-3 ovarian) was > 100 µM, the TGI (OVCAR-4 ovarian) was > 100 µM and the TGI (OVCAR-5 ovarian) was > 100 µM. For the same compound, the TGI (OVCAR-8 ovarian) was > 100 µM, the TGI (PC-3 prostate) was > 100 µM and the TGI (RPMI-8226 leukemia) was > 100 µM. For the same compound, the TGI (RXF 393 renal) was > 100 µM, the TGI (SF-268 CNS) was > 100 µM and the TGI (SK-MEL-2 melanoma) was > 100 µM. The TGI (SK-MEL-28 melanoma) was > 100 µM, the TGI (SN12C renal) was > 100 µM and the TGI (SNB-19 CNS) was > 100 µM. For the same compound, the TGI (SNB-75 CNS) was > 100 µM, the TGI (SR leukemia) was > 100 µM and the TGI (SW-620 colon) was > 100 µM. For the same compound, the TGI (T-47D breast) was > 100 µM, the TGI (TK-10 renal) was > 100 µM and the TGI (U251 CNS) was > 100 µM. The TGI (UACC-257 melanoma) was > 100 µM, the TGI (UACC-62 melanoma) was > 100 µM and the TGI (UO-31 renal) was > 100 µM.
